Reference: patent US9963464B2, “Macrocyclic compounds” (Bayer Pharma Aktiengesellschaft, priority 2014, dated 2018)

What was measured:
CDK2/CycE = target: T1, CDK2/CycE (Homo sapiens, UniProt P24941); assay: CDK2/CycE kinase assay (TR-FRET, Method 2a); format: biochemical; details: 10 μM ATP
T1 construct: GST; purchased ProQinase GmbH (Freiburg, Germany); host or cells: insect cells (Sf9)
Description: 2a. CDK2/CycE Kinase Assay:
CDK2/CycE-inhibitory activity of compounds of the present invention was quantified employing the CDK2/CycE TR-FRET assay as described in the following paragraphs:
Recombinant fusion proteins of GST and human CDK2 and of GST and human CycE, expressed in insect cells (Sf9) and purified by Glutathion-Sepharose affinity chromatography, were purchased from ProQinase GmbH (Freiburg, Germany). As substrate for the kinase reaction biotinylated peptide biotin-Ttds-YISPLKSPYKISEG (C-terminus in amid form) was used which can be purchased e.g. from the company JERINI Peptide Technologies (Berlin, Germany).
For the assay 50 nl of a 100 fold concentrated solution of the test compound in DMSO was pipetted into a black low volume 384 well microtiter plate (Greiner Bio-One, Frickenhausen, Germany), 2 μl of a solution of CDK2/CycE in aqueous assay buffer [50 mM Tris/HCl pH 8.0, 10 mM MgCl2, 1.0 mM dithiothreitol, 0.1 mM sodium ortho-vanadate, 0.01% (v/v) Nonidet-P40 (Sigma)] were added and the mixture was incubated for 15 min at 22° C. to allow pre-binding of the test compounds to the enzyme before the start of the kinase reaction. […] The concentration of CDK2/CycE was adjusted depending of the activity of the enzyme lot and was chosen appropriate to have the assay in the linear range, typical concentrations were in the range of 130 ng/mL. The reaction was stopped by the addition of 5 μl of a solution of TR-FRET detection reagents (0.2 μM streptavidine-XL665 [Cisbio Bioassays, Codolet, France] and 1 nM anti-RB(pSer807/pSer811)-antibody from BD Pharmingen [#558389] and 1.2 nM LANCE EU-W1024 labeled anti-mouse IgG antibody [Perkin-Elmer, product no. AD0077]) in an aqueous EDTA-solution (100 mM EDTA, 0.2% (w/v) bovine serum albumin in 100 mM HEPES pH 7.5).
The resulting mixture was incubated 1 h at 22° C. to allow the formation of complex between the phosphorylated biotinylated peptide and the detection reagents. Subsequently the amount of phosphorylated substrate was evaluated by measurement of the resonance energy transfer from the Eu-chelate to the streptavidine-XL. Therefore, the fluorescence emissions at 620 nm and 665 nm after excitation at 350 nm was measured in a TR-FRET reader, e.g. a Rubystar (BMG Labtechnologies, Offenburg, Germany) or a Viewlux (Perkin-Elmer). The ratio of the emissions at 665 nm and at […] was taken as the measure for the amount of phosphorylated substrate. The data were normalised (enzyme reaction without inhibitor=0% inhibition, all other assay components but no enzyme=100% inhibition).

HeLa-MaTu-ADR cells = assay: Proliferation assay HeLa-MaTu-ADR; format: cell-based, human; details: Homo sapiens, 96 h, 4 days, crystal violet; read-out: Inhibition of HeLa-MaTu-ADR cell proliferation IC50
Procedure: Cultivated tumour cells (HeLa, human cervical tumour cells, ATCC CCL-2; NCI-H460, human non-small cell lung carcinoma cells, ATCC HTB-177; A2780, human ovarian carcinoma cells, ECACC #93112519; DU 145, hormone-independent human prostate carcinoma cells, ATCC HTB-81; HeLa-MaTu-ADR, multidrug-resistant human cervical carcinoma cells, EPO-GmbH Berlin; Caco-2, human colorectal carcinoma cells, ATCC HTB-37; B16F10, mouse melanoma cells, ATCC CRL-6475) were plated at a density of 5,000 cells/well (DU145, HeLa-MaTu-ADR), 3,000 cells/well (NCI-H460, HeLa), 2,500 cells/well (A2780), 1,500 cells/well (Caco-2), or 1,000 cells/well (B16F10) in a 96-well multititer plate in 200 μL of their respective growth medium supplemented 10% fetal calf serum. After 24 hours, the cells of one plate (zero-point plate) were stained with crystal violet (see below), while the medium of the other plates was replaced by fresh culture medium (200 μl), to which the test substances were added in various concentrations (0 μM, as well as in the range of 0.001-10 μM). The cells were incubated for 4 days in the presence of test substances. Cell proliferation was determined by staining the cells with crystal violet: the cells were fixed by adding 20 μl/measuring point of an 11% glutaric aldehyde solution for 15 minutes at room temperature. After three washing cycles of the fixed cells with water, the plates were dried at room temperature. The cells were stained by adding 100 μl/measuring point of a 0.1% crystal violet solution (pH 3.0). After three washing cycles of the stained cells with water, the plates were dried at room temperature. The dye was dissolved by adding 100 μl/measuring point of a 10% acetic acid solution. The extinction was determined by photometry at a wavelength of 595 nm. The change of cell number, in percent, was calculated by normalization of the measured values to the extinction values of the zero-point plate (=0%) and the extinction of the untreated (0 μm) cells (=100%). The IC50 values (inhibitory concentration at 50% of maximal effect) were determined by means of a 4 parameter fit. Non-adherent MOLM-13 human acute myeloid leukemia cells (DSMZ ACC 554) were seeded at a density of 5,000 cells/well in a 96-well multititer plate in 100 μL of growth medium supplemented 10% fetal calf serum. After 24 hours, cell viability of one plate (zero-point plate) was determined with the Cell Titre-Glo Luminescent Cell Viability Assay (Promega), while 50 μL of test compound containing medium was added to the wells of the other plates (final concentrations in the range of 0.001-1 μM and DMSO controls). Cell viability was assessed after 72-hour exposure with the Cell Titre-Glo Luminescent Cell Viability Assay (Promega). IC50 values (inhibitory concentration at 50% of maximal effect) were determined by means of a 4 parameter fit on measurement data which were normalized to vehicle (DMSO) treated cells (=100%) and measurement readings taken immediately before compound exposure (=0%).

| SMILES | IC50 (CDK2/CycE) | IC50 (HeLa-MaTu-ADR cells) |
| --- | --- | --- |
| CS(=N)(=O)Cc1cc2cc(c1)OCCCCOc1cc(F)ccc1-c1nc(ncc1F)N2 (racemic) [Example 1, (rac)-16,20-Difluoro-9-[(S-methylsulfonimidoyl)methyl]-2,3,4,5-tetrahydro-12H-13,17-(azeno)-11,7-(metheno)-1,6,12,14-benzodioxadiazacyclononadecine] | 21.2 nM | – |
| CS(=N)(=O)Cc1cc2cc(c1)OCCCOc1cc(F)ccc1-c1nc(ncc1F)N2 (racemic) [Example 15, (rac)-15,19-difluoro-8-[(S-methylsulfonimidoyl)methyl]-3,4-dihydro-2H,11H-12,16-(azeno)-10,6-(metheno)-1,5,11,13-benzodioxadiazacyclooctadecine] | 26 nM | 14 nM |
| CS(=O)(Cc1cc2cc(c1)OCCCOc1cc(F)ccc1-c1nc(ncc1F)N2)=NC(=O)C(F)(F)F (racemic) [Example 16, (rac)-N-[{[15,19-difluoro-3,4-dihydro-2H,11H-12,16-(azeno)-10,6-(metheno)-1,5,11,13-benzodioxadiazacyclooctadecin-8-yl]methyl}(methyl)oxido-λ^6-sulfanylidene]-2,2,2-trifluoroacetamide] | 58.2 nM | 12 nM |
| CCNC(=O)N=S(C)(=O)Cc1cc2nc(c1)OCCCOc1cc(F)ccc1-c1cc(ncc1F)N2 (racemic) [Example 17, (rac)-1-[{[15,19-difluoro-3,4-dihydro-2H,11H-10,6-(azeno)-12,16-(metheno)-1,5,11,13-benzodioxadiazacyclooctadecin-8-yl]methyl}(methyl)oxido-λ^6-sulfanylidene]-3-ethylurea] | 5.6 nM | 25 nM |
| CC(=O)N=S(C)(=O)Cc1cc2nc(c1)OCCCOc1cc(F)ccc1-c1cc(ncc1F)N2 (racemic) [Example 18, (rac)-N-[{[15,19-difluoro-3,4-dihydro-2H,11H-10,6-(azeno)-12,16-(metheno)-1,5,11,13-benzodioxadiazacyclooctadecin-8-yl]methyl}(methyl)oxido-λ^6-sulfanylidene]acetamide] | 8.2 nM | 10 nM |
| CCOC(=O)N=S(C)(=O)Cc1cc2nc(c1)OCCCOc1cc(F)ccc1-c1cc(ncc1F)N2 (racemic) [Example 20, (rac)-ethyl [{[15,19-difluoro-3,4-dihydro-2H,11H-10,6-(azeno)-12,16-(metheno)-1,5,11,13-benzodioxadiazacyclooctadecin-8-yl]methyl}(methyl)oxido-λ^6-sulfanylidene]carbamate] | 11.7 nM | 30 nM |
| CS(=O)(Cc1cc2nc(c1)OCCCOc1cc(F)ccc1-c1cc(ncc1F)N2)=NC(=O)OCCCl (racemic) [Example 21, (rac)-2-chloroethyl [{[15,19-difluoro-3,4-dihydro-2H,11H-10,6-(azeno)-12,16-(metheno)-1,5,11,13-benzodioxadiazacyclooctadecin-8-yl]methyl}(methyl)oxido-λ^6-sulfanylidene]carbamate] | 11.6 nM | 15 nM |

Other lines, results leading:

| IC50 (CDK2/CycE) | IC50 (HeLa-MaTu-ADR cells) | SMILES |
| --- | --- | --- |
| 4.6 nM | 10 nM | C[S+]([O-])Cc1cc2nc(c1)OCCCOc1cc(F)ccc1-c1cc(ncc1F)N2 (racemic) [Example 4, (rac)-15,19-Difluoro-8-[(methylsulfinyl)methyl]-3,4-dihydro-2H,11H-10,6-(azeno)-12,16-(metheno)-1,5,11,13-benzodioxadiazacyclooctadecine] |
| 2 nM | – | CS(=N)(=O)Cc1cc2nc(c1)OCCCOc1cc(F)ccc1-c1cc(ncc1F)N2 (racemic) [Example 5, (rac)-15,19-Difluoro-8-[(S-methylsulfonimidoyl)methyl]-3,4-dihydro-2H,11H-10,6-(azeno)-12,16-(metheno)-1,5,11,13-benzodioxadiazacyclooctadecine] |
| 415 nM | 476 nM | C[S+]([O-])Cc1cc2nc(c1)OCCOc1cc(F)ccc1-c1cc(ncc1F)N2 (racemic) [Example 10, (rac)-14,18-difluoro-7-[(methylsulfinyl)methyl]-2,3-dihydro-10H-9,5-(azeno)-11,15-(metheno)-1,4,10,12-benzodioxadiazacycloheptadecine] |
| 180 nM | 185 nM | CS(=N)(=O)Cc1cc2nc(c1)OCCOc1cc(F)ccc1-c1cc(ncc1F)N2 (racemic) [Example 11, (rac)-14,18-difluoro-7-[(S-methylsulfonimidoyl)methyl]-2,3-dihydro-10H-9,5-(azeno)-11,15-(metheno)-1,4,10,12-benzodioxadiazacycloheptadecine] |
| 16.7 nM | 31 nM | C[S+]([O-])Cc1cc2nc(c1)OCCCCOc1cc(F)ccc1-c1cc(ncc1F)N2 (racemic) [Example 13, (rac)-16,20-difluoro-9-[(methylsulfinyl)methyl]-2,3,4,5-tetrahydro-12H-11,7-(azeno)-13,17-(metheno)-1,6,12,14-benzodioxadiazacyclononadecine] |
| 19.8 nM | 20 nM | CS(=N)(=O)Cc1cc2nc(c1)OCCCCOc1cc(F)ccc1-c1cc(ncc1F)N2 (racemic) [Example 14, (rac)-16,20-difluoro-9-[(S-methylsulfonimidoyl)methyl]-2,3,4,5-tetrahydro-12H-11,7-(azeno)-13,17-(metheno)-1,6,12,14-benzodioxadiazacyclononadecine] |
| 15.4 nM | 38 nM | CN=S(C)(=O)Cc1cc2nc(c1)OCCCOc1cc(F)ccc1-c1cc(ncc1F)N2 (racemic) [Example 19, (rac)-8-[(N,S-dimethylsulfonimidoyl)methyl]-15,19-difluoro-3,4-dihydro-2H,11H-10,6-(azeno)-12,16-(metheno)-1,5,11,13-benzodioxadiazacyclooctadecine] |
| 18200 nM | – | CSCc1cc2nc(c1)OCCOc1cc(F)ccc1-c1cc(ncc1F)N2 [Example 9, 14,18-Difluoro-7-[(methylsulfanyl)methyl]-2,3-dihydro-10H-9,5-(azeno)-11,15-(metheno)-1,4,10,12-benzodioxadiazacycloheptadecine] |
